Test results reported in patent US9675612B2, “Substituted thiazolopyrimidines” (BAYER PHARMA AKTIENGESELLSCHAFT, priority 2013, dated 2017).
pIC50: −log10 of the molar value.

Target: human full-length MKNK1 (Homo sapiens (Human), UniProt Q9BUB5, T344D)
Test: MKNK1 kinase high ATP assay (TR-FRET)
Assay type: biochemical
Details: high ATP (2 mM final), 15 min preincubation with MKNK1, TR-FRET
Procedure: MKNK1 Kinase High ATP Assay
MKNK1-inhibitory activity at high ATP of compounds of the present invention after their preincubation with MKNK1 was quantified employing the TR-FRET-based MKNK1 high ATP assay as described in the following paragraphs.
As substrate for the kinase reaction the biotinylated peptide biotin-Ahx-[…] (C-terminus in amide form) was used, which can be purchased e.g. from the company Biosyntan (Berlin-Buch, Germany).
For the assay 50 nL of a 100 fold concentrated solution of the test compound in DMSO was pipetted into a black low volume 384 well microtiter plate (Greiner Bio-One, Frickenhausen, Germany), 2 μL of a solution of MKNK1 in aqueous assay buffer [50 mM HEPES pH 7.5, 5 mM MgCl2, 1.0 mM dithiothreitol, 0.005% (v/v) Nonidet-P40 (Sigma)] was added and the mixture was incubated for 15 min at 22° C. to allow pre-binding of the test compounds to the enzyme before the start of the kinase reaction. Then the kinase reaction was started by the addition of 3 μL of a solution of adenosine-tri-phosphate (ATP, 3.3 mM=>final conc. in the 5 μL assay volume is 2 mM) and substrate (0.1 μM=>final conc. in the 5 μL assay volume is 0.06 μM) in assay buffer and the resulting mixture was incubated for a reaction time of 30 min at 22° C. The concentration of MKNK1 was adjusted depending of the activity of the enzyme lot and was chosen appropriate to have the assay in the linear range, typical concentrations were in the range of 0.003 μg/mL. The reaction was stopped by the addition of 5 μL of a solution of TR-FRET detection reagents (5 nM streptavidine-XL665 [Cisbio Bioassays, Codolet, France] and 1 nM anti-ribosomal protein S6 (pSer236)-antibody from Invitrogen [#44921G] and 1 nM LANCE EU-W1024 labeled ProteinG [Perkin-Elmer, product no. AD0071]) in an aqueous EDTA-solution (100 mM EDTA, 0.1% (w/v) bovine serum albumin in 50 mM HEPES pH 7.5).
The resulting mixture was incubated for 1 h at 22° C. to allow the formation of complex between the phosphorylated biotinylated peptide and the detection reagents. Subsequently the amount of phosphorylated substrate was evaluated by measurement of the resonance energy transfer from the Eu-chelate to the streptavidine-XL.

human full-length MKNK1, sequence (Q9BUB5 other isoform, or with tags, fused parts or gaps T344D): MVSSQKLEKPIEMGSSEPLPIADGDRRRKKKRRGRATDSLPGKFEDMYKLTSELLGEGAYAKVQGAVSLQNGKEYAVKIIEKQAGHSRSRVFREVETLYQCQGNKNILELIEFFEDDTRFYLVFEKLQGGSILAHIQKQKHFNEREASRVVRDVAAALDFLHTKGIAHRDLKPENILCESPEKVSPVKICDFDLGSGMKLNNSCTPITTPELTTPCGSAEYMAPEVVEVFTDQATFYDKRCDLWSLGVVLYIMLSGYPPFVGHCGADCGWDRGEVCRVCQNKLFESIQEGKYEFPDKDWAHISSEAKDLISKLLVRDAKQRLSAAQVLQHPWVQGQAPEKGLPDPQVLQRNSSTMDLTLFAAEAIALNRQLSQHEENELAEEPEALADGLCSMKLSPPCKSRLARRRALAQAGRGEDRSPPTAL

| Compound | pIC50 |
| --- | --- |
| COc1cc2[nH]c(=O)sc2cc1Nc1ncnc2sc(CCc3ccccc3)nc12 [Example 25, 5-Methoxy-6-{[2-(2-phenylethyl)[1,3]thiazolo[5,4-d]pyrimidin-7-yl]amino}-1,3-benzothiazol-2(3H)-one] | 5.00 |
| O=C(c1nc2c(Nc3ccc4[nH]c(=O)sc4c3)ncnc2s1)N1CCCCC1 [Example 32, 6-{[2-(Piperidin-1-ylcarbonyl)[1,3]thiazolo[5,4-d]pyrimidin-7-yl]amino}-1,3-benzothiazol-2(3H)-one] | 6.86 |
| CN(C)C(=O)c1nc2c(Nc3ccc4[nH]ncc4c3)ncnc2s1 [Example 43, 7-(1H-Indazol-5-ylamino)-N,N-dimethyl[1,3]thiazolo[5,4-d]pyrimidine-2-carboxamide] | 6.69 |
| COc1cc2[nH]c(=O)sc2cc1Nc1ncnc2sc(C3CCCCC3)nc12 [Example 7, 6-[(2-Cyclohexyl[1,3]thiazolo[5,4-d]pyrimidin-7-yl)amino]-5-methoxy-1,3-benzothiazol-2(3H)-one] | 6.45 |
| CC(C)Oc1cc2[nH]ncc2cc1Nc1ncnc2sc(C(=O)N3CCCCC3)nc12 [Example 35, Piperidin-1-yl(7-{[6-(propan-2-yloxy)-1H-indazol-5-yl]amino}[1,3]thiazolo[5,4-d]pyrimidin-2-yl)methanone] | 6.99 |
| CN(C)C(=O)CCc1nc2c(Nc3ccc4[nH]ncc4c3)ncnc2s1 [Example 21, 3-[7-(1H-Indazol-5-ylamino)[1,3]thiazolo[5,4-d]pyrimidin-2-yl]-N,N-dimethylpropanamide] | 7.00 |
| CC1(O)CN(C(=O)CCc2nc3c(Nc4ccc5[nH]ncc5c4)ncnc3s2)C1 [Example 14, 1-(3-Hydroxy-3-methylazetidin-1-yl)-3-[7-(1H-indazol-5-ylamino)[1,3]thiazolo[5,4-d]pyrimidin-2-yl]propan-1-one] | 6.90 |
| O=C(c1nc2c(Nc3ccc4[nH]ncc4c3)ncnc2s1)N1CCCCC1 [Example 31, [7-(1H-Indazol-5-ylamino)[1,3]thiazolo[5,4-d]pyrimidin-2-yl](piperidin-1-yl)methanone] | 6.73 |
| O=c1[nH]c2ccc(Nc3ncnc4sc(C5CCC5)nc34)cc2s1 [Example 2, 6-[(2-Cyclobutyl[1,3]thiazolo[5,4-d]pyrimidin-7-yl)amino]-1,3-benzothiazol-2(3H)-one] | 7.06 |
| COc1cc2[nH]ncc2cc1Nc1ncnc2sc(C(=O)N(C)CCC(=O)N(C)C)nc12 [Example 46, N-[3-(Dimethylamino)-3-oxopropyl]-7-[(6-methoxy-1H-indazol-5-yl)amino]-N-methyl[1,3]thiazolo[5,4-d]pyrimidine-2-carboxamide] | 6.74 |
| c1nc(Nc2ccc3[nH]ncc3c2)c2ncsc2n1 [Example 16, N-(1H-Indazol-5-yl)[1,3]thiazolo[5,4-d]pyrimidin-7-amine] | 6.73 |
| COc1cc2[nH]ncc2cc1Nc1ncnc2sc(CCCC(=O)N(C)C)nc12 [Example 26, 4-{7-[(6-Methoxy-1H-indazol-5-yl)amino][1,3]thiazolo[5,4-d]pyrimidin-2-yl}-N, N-dimethylbutanamide] | 7.07 |
| c1nc(Nc2ccc3[nH]ncc3c2)c2nc(C3CCCCC3)sc2n1 [Example 8, 2-Cyclohexyl-N-(1H-indazol-5-yl)[1,3]thiazolo[5,4-d]pyrimidin-7-amine] | 7.25 |
| O=c1[nH]c2ccc(Nc3ncnc4scnc34)cc2s1 [Example 19, 6-([1,3]Thiazolo[5,4-d]pyrimidin-7-ylamino)-1,3-benzothiazol-2(3H)-one] | 6.80 |
| CN(C)C(=O)CCN(C)C(=O)c1nc2c(Nc3ccc4[nH]c(=O)sc4c3)ncnc2s1 [Example 41, N-[3-(Dimethylamino)-3-oxopropyl]-N-methyl-7-[(2-oxo-2,3-dihydro-1,3-benzothiazol-6-yl)amino][1,3]thiazolo[5,4-d]pyrimidine-2-carboxamide] | 5.56 |
| COc1cc2[nH]c(=O)sc2cc1Nc1ncnc2sc(C(=O)N(C)C)nc12 [Example 28, 7-[(5-Methoxy-2-oxo-2,3-dihydro-1,3-benzothiazol-6-yl)amino]-N,N-dimethyl[1,3]thiazolo[5,4-d]pyrimidine-2-carboxamide] | 5.97 |
| c1nc(Nc2ccc3[nH]ncc3c2)c2nc(C3CCC3)sc2n1 [Example 10, 2-Cyclobutyl-N-(1H-indazol-5-yl)[1,3]thiazolo[5,4-d]pyrimidin-7-amine] | 7.27 |
| COc1cc2[nH]ncc2cc1Nc1ncnc2sc(C(=O)N(C)CC(=O)N(C)C)nc12 [Example 38, N-[2-(Dimethylamino)-2-oxoethyl]-7-[(6-methoxy-1H-indazol-5-yl)amino]-N-methyl[1,3]thiazolo[5,4-d]pyrimidine-2-carboxamide] | 6.87 |

Stronger by pIC50, values ahead:

| pIC50 | Compound |
| --- | --- |
| 7.29 | c1ccc(CCc2nc3c(Nc4ccc5[nH]ncc5c4)ncnc3s2)cc1 [Example 23, N-(1H-indazol-5-yl)-2-(2-phenylethyl)[1,3]thiazolo[5,4-d]pyrimidin-7-amine] |
| 7.33 | COc1cc2[nH]ncc2cc1Nc1ncnc2scnc12 [Example 15, N-(6-Methoxy-1H-indazol-5-yl)[1,3]thiazolo[5,4-d]pyrimidin-7-amine] |
| 7.38 | CCOc1cc2[nH]ncc2cc1Nc1ncnc2sc(C(=O)N(C)C)nc12 [Example 30, 7-[(6-Ethoxy-1H-indazol-5-yl)amino]-N, N-dimethyl[1,3]thiazolo[5,4-d]pyrimidine-2-carboxamide] |
| 7.42 | COc1cc2[nH]ncc2cc1Nc1ncnc2sc(CCc3ccccc3)nc12 [Example 22, N-(6-Methoxy-1H-indazol-5-yl)-2-(2-phenylethyl)[1,3]thiazolo[5,4-d]pyrimidin-7-amine] |
| 7.43 | O=c1[nH]c2ccc(Nc3ncnc4sc(CC5CC5)nc34)cc2s1 [Example 1, 6-{[2-(Cyclopropylmethyl)[1,3]thiazolo[5,4-d]pyrimidin-7-yl]amino}-1,3-benzothiazol-2(3H)-one] |
| 7.44 | COc1cc2[nH]ncc2cc1Nc1ncnc2sc(COCc3ccccc3)nc12 [Example 20, 2-[(Benzyloxy)methyl]-N-(6-methoxy-1H-indazol-5-yl)[1,3]thiazolo[5,4-d]pyrimidin-7-amine] |
| 7.44 | c1nc(Nc2ccc3[nH]ncc3c2)c2nc(CC3CC3)sc2n1 [Example 9, 2-(Cyclopropylmethyl)-N-(1H-indazol-5-yl)[1,3]thiazolo[5,4-d]pyrimidin-7-amine] |
| 7.46 | c1ccc(Cc2nc3c(Nc4ccc5[nH]ncc5c4)ncnc3s2)cc1 [Example 11, 2-Benzyl-N-(1H-indazol-5-yl)[1,3]thiazolo[5,4-d]pyrimidin-7-amine] |
| 7.47 | CCOc1cc2[nH]ncc2cc1Nc1ncnc2sc(C(=O)N3CCCCC3)nc12 [Example 34, {7-[(6-Ethoxy-1H-indazol-5-yl)amino][1,3]thiazolo[5,4-d]pyrimidin-2-yl}(piperidin-1-yl)methanone] |
| 7.60 | COCc1nc2c(Nc3cc4cn[nH]c4cc3OC)ncnc2s1 [Example 5, N-(6-Methoxy-1H-indazol-5-yl)-2-(methoxymethyl)[1,3]thiazolo[5,4-d]pyrimidin-7-amine] |
| 7.70 | COc1cc2[nH]ncc2cc1Nc1ncnc2sc(Cc3ccccc3)nc12 [Example 4, 2-Benzyl-N-(6-methoxy-1H-indazol-5-yl)[1,3]thiazolo[5,4-d]pyrimidin-7-amine] |
| 7.77 | COc1cc2[nH]ncc2cc1Nc1ncnc2sc(C(=O)N3CCCCC3)nc12 [Example 33, {7-[(6-Methoxy-1H-indazol-5-yl)amino][1,3]thiazolo[5,4-d]pyrimidin-2-yl}(piperidin-1-yl)methanone] |
